# Source: patent US12691070B2, “Cationic lipids and preparation method thereof” (RiboX Therapeutics HK Limited, priority 2023, dated 2026)
# Assays:
# [1] = LNP size and polydispersity index (PDI) by dynamic light scattering; format: physicochemical; settings: for Size: in nm (unit assumed)
# Method in brief: (§1)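 LNPs of ionizable lipid/DSPC/cholesterol/DMG-PEG 2000 (50:10:38.5:1.5) made by microfluidic mixing of luciferase circRNA or mRNA in pH 4.5 acetate with lipids in ethanol (3:1, 12 ml/min), ionizable lipid:nucleotide 15 or 6, then dialyzed against PBS. Size, PDI (DLS) and zeta potential on Zetasizer; encapsulation by Ribogreen ± Triton X-100.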
# [2] = LNP zeta potential (Zetasizer); format: physicochemical
# Method in brief: as §1
# [3] = RNA encapsulation efficacy by Quant-IT Ribogreen kit; format: physicochemical; settings: for Encapsulation Efficiency %: LNP with cirRNA (SEQ ID NO: 1); for Encapsulation Efficiency: LNP with mRNA (SEQ ID NO: 2)
# Method in brief: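 Ribogreen read-out: encapsulation = 100% − (signal of intact RNA-LNPs / signal with Triton X-100). Particles: ionizable lipid:DSPC:Chol:DMG-PEG2000 50:10:38.5:1.5, ionizable lipid:ribonucleotide 15 or 6, final lipid 1.5–6 mM, PBS-dialyzed.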
# [4] = tested on: Hep G2 cells; test: In vitro expression of firefly-luciferase, Hep G2; format: cell-based
# Method in brief: (§2)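 Both cell lines receive RNA-LNPs carrying firefly-luciferase RNA at 100 ng/mL. Lysis follows washing at 72 h post-transfection, and luciferase activity is then quantified on a luminometer using a commercial luciferase assay reagent.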
# [5] = tested on: RAW 264.7 cells; test: In vitro expression of firefly-luciferase, RAW 264.7; format: cell-based
# Method in brief: as §2
# [6] = tested on: Hep G2 cells; test: In vitro toxicity (CellTiter-Glo cell viability), Hep G2; format: cell-based;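 note: percent of untreated cells luminescence signal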
# Method in brief: (§3)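 First, cells receive RNA-LNPs at 1 μg/mL by transfection. After 72 hours, CellTiter-Glo reagent is added per kit protocol. Luminescence is then read and converted to cell viability.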
# [7] = tested on: RAW 264.7 cells; test: In vitro toxicity (CellTiter-Glo cell viability), RAW 264.7; format: cell-based;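 note: percent of untreated cells luminescence signal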
# Method in brief: as §3
# [8] = tested on: BALB/C mice; test: In vivo expression, whole-body luminescence (IVIS)
# Description: 6-8 week old, female BALB/C mice were injected with 0.05 mg*kg-1 of RNA-LNPs encoding for firefly-luciferase by intravenous injection. At 6 hours post injection, animals were intraperitoneally injected with 15 mg/ml of Luciferin substrate and whole-body luminescence was determined by a bioluminescent in vivo imaging system (IVIS).
# [9] = tested on: MCP-I; test: MCP-I cytokine elevation in serum; format: in vivo; settings: cirRNA (SEQ ID NO: 1) LNPs, mice
# Description: 6-8 week old, female BALB/C mice were injected with 0.5 mg*kg-1 of RNA LNPs by intravenous injection. At 2 and 24 hours post injection, animals were bled and sera concentrations of MCP-I were determined by an immunoassay (Luminex).
# [10] = tested on: Alanine Aminotransferase (ALT); test: Liver enzyme elevation in serum, ALT; format: in vivo; settings: cirRNA (SEQ ID NO: 1) LNPs, BALB/C mice, intravenous 0.5 MPK
# Description: (§4) 6-8 week old, female BALB/C mice were injected with 0.5 mg*kg-1 of RNA LNPs by intravenous injection. At 2 and 24 hours post injection, animals were bled and sera concentrations of Alanine Aminotransferase (ALT) and Aspartate Aminotransferase (AST) were determined by a blood chemistry analyzer.
# [11] = tested on: Aspartate Aminotransferase (AST); test: Liver enzyme elevation in serum, AST; format: in vivo; settings: cirRNA (SEQ ID NO: 1) LNPs, BALB/C mice, intravenous 0.5 MPK
# Description: as §4
# [12] = tested on: BALB/C mice; test: Local tolerance determination by footpad injection; format: in vivo; settings: cirRNA (SEQ ID NO: 1) LNP, 0.175 mg*kg-1 subcutaneous into the footpad, 24 hours post minus prior
# Description: 6-8 week old, female BALB/C mice were injected with 0.175 mg*kg-1 RNA LNPs by subcutaneous injection into the footpad. Prior to, and 24 hours post injections, injected footpad thickness was determined by a caliper.
# [13] = cirRNA (SEQ ID NO: 1) LNPs, firefly-luciferase luminescence, Hep G2 cells
# [14] = mRNA (SEQ ID NO: 2) LNP, 100 ng/mL, 72 hours post transfection, luciferase activity
# [15] = cirRNA (SEQ ID NO: 1) LNPs, firefly-luciferase luminescence, RAW 264.7 cells
# [16] = cirRNA (SEQ ID NO: 1) LNPs, Hep G2 cells
# [17] = mRNA (SEQ ID NO: 2) LNP, 1 μg/mL, 72 hours post transfection
# [18] = cirRNA (SEQ ID NO: 1) LNPs, RAW 264.7 cells
# [19] = cirRNA (SEQ ID NO: 1) LNPs, BALB/C mice
# [20] = mRNA (SEQ ID NO: 2) LNP, 0.05 mg*kg-1 intravenous, 6 hours post injection
Structure (SMILES),PDI ([1]; LNP with cirRNA (SEQ ID NO: 1)),Size ([1]; LNP with cirRNA (SEQ ID NO: 1)),PDI ([1]; LNP with mRNA (SEQ ID NO: 2)),Size ([1]; LNP with mRNA (SEQ ID NO: 2)),Zeta (mV) ([2]; LNP with cirRNA (SEQ ID NO: 1)),Zeta (mV) ([2]; LNP with mRNA (SEQ ID NO: 2)),Encapsulation Efficiency % [3],Encapsulation Efficiency [3],"In vitro Expression HepG2 [4, 13]","In vitro Expression HepG2 [4, 14]","In vitro Expression RAW [5, 15]","In vitro Expression RAW [5, 14]","In vitro Viability HepG2 [6, 16]","In vitro Viability HepG2 [6, 17]","In vitro Viability RAW [7, 18]","In vitro Viability RAW [7, 17]","In vivo Expression (Whole Body) [8, 19]","In vivo Expression (Whole Body) [8, 20]",MCP-I in Sera 2 hours After 0.5 MPK Injection [9],MCP-I in Sera 24 hours After 0.5 MPK Injection [9],further results
"CCCCC/C=C\C/C=C\CCCCCCCCN(CCCCCC(=O)OCC(CCCCCCCC)CCCCCCCCCC)CCOC(=O)NCCN(C)C (stereo not drawn) [Lipid 75, 2-octyldodecyl 2-methyl-10-((9Z,12Z)-octadeca-9,12-dien-1-yl)-6-oxo-7-oxa-2,5,10-triazahexadecan-16-oate]",0.13,91.13,0.1903,70.28,1.59 mV,13.66 mV,97%,89%,1.94E+06,9.23E+06,2.08E+06,2.18E+06,85%,95%,75%,96%,9.85E+08,4.22E+08,8335.00 pg/mL,93.14 pg/mL,"ALT in Sera (IU/L) 2 hours After 0.5 MPK Injection [10]: 111.37 IU/L; ALT in Sera (IU/L) 24 hours After 0.5 MPK Injection [10]: 48.97 IU/L; AST in Sera (IU/L) 2 hours After 0.5 MPK Injection [11]: 279.87 IU/L; AST in Sera (IU/L) 24 hours After 0.5 MPK Injection [11]: 94.83 IU/L; Footpad Thickness (24 h−0 h, mm) [12]: 0.85 mm"
CCCCCCCCC(CCCCCC)C(=O)OCCCCCCCCN(CCCCCCCCOC(=O)C(CCCCCC)CCCCCCCC)CCCOC(=O)NCc1ncc[nH]1 (stereo not drawn) [Lipid 375],0.2011,92.54,0.008186,75.13,−1.253 mV,−4.713 mV,89%,88.53%,1.10E+06,4.36E+05,7.06E+05,2.13E+05,100%,100%,90%,78%,3.46E+08,8.41E+08,2740.67 pg/mL,396.29 pg/mL,"ALT in Sera (IU/L) 2 hours After 0.5 MPK Injection [10]: 174.67 IU/L; ALT in Sera (IU/L) 24 hours After 0.5 MPK Injection [10]: 120.33 IU/L; AST in Sera (IU/L) 2 hours After 0.5 MPK Injection [11]: 292.00 IU/L; AST in Sera (IU/L) 24 hours After 0.5 MPK Injection [11]: 251.67 IU/L; Footpad Thickness (24 h−0 h, mm) [12]: 0.27 mm"
"CCCCCCCCCCC(CCCCCCCC)COC(=O)CCCCCN(CCCCCCCCOC(=O)C(CCCCCC)CCCCCCCC)CCOC(=O)NCCN(C)C (stereo not drawn) [Lipid 51, 2-octyldodecyl 10-(8-((2-hexyldecanoyl)oxy)octyl)-2-methyl-6-oxo-7-oxa-2,5,10-triazahexadecan-16-oate]",0.04,89.19,0.1368,79.21,−0.71 mV,3.197 mV,97%,89%,9.85E+05,4.66E+07,8.74E+06,2.63E+06,88%,83%,104%,80%,6.85E+08,1.78E+09,3296.20 pg/mL,562.40 pg/mL,"ALT in Sera (IU/L) 2 hours After 0.5 MPK Injection [10]: 71.07 IU/L; ALT in Sera (IU/L) 24 hours After 0.5 MPK Injection [10]: 45.50 IU/L; AST in Sera (IU/L) 2 hours After 0.5 MPK Injection [11]: 193.77 IU/L; AST in Sera (IU/L) 24 hours After 0.5 MPK Injection [11]: 94.73 IU/L; Footpad Thickness (24 h−0 h, mm) [12]: 1.11 mm"
